Read-outs that look alike come from different tables or passages of the source. One block for each compound: values may come before it.
Columns and labels:
aromatase = target: T1, aromatase (Rattus norvegicus, UniProt P22443); experiment: Aromatase inhibition in the rat ovarian microsome assay; format: biochemical; conditions: substrate (androstenedione) concentration 0.1 μM; rat ovarian microsomes; read-out: EC50 (concentration of compound required to achieve 50% inhibition of aromatase activity)
T1 construct: ovarian microsomes are obtained from rats treated with pregnant mares serum gonadotropin; from tissue; host or cells: rat ovary microsomes (rats treated with pregnant mares serum gonadotropin)
T1 sequence (P22443 1-508): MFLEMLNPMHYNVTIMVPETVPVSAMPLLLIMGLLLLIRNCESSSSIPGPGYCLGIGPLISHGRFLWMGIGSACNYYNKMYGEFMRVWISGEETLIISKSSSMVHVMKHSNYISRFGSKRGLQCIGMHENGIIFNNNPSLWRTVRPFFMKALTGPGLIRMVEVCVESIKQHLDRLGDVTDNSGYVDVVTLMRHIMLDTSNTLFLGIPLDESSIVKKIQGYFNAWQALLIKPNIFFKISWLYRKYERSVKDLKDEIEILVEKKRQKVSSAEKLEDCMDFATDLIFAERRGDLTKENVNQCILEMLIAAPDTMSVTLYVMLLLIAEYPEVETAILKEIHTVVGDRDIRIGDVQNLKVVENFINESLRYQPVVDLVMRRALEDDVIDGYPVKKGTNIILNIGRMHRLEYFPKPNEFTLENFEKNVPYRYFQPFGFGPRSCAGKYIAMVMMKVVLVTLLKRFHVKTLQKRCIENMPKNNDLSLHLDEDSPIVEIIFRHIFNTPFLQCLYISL
Procedure: In this test system, ovarian microsomes are obtained from rats treated with pregnant mares serum gonadotropin. Test compounds are added to reaction vials containing 0.1 μM 4-androstene-3,17-dione, 100,000 dpm 1,2[^3 H]-androstenedione, the microsomes and a NADPH generating system. The concentrations of the inhibitors tested ranged between 5 and 10000 nM. […] Potency is determined based on the concentration of inhibitor in nM required to produce a 50% inhibition of enzyme activity (EC50) when the concentration of substrate (androstenedione) is 0.1 μM.

[1] = system: Estrogen synthesis (aromatization); experiment: Estrogen Synthesis Inhibition in Rats; format: in vivo, immature female Wistar rats; conditions: Rattus norvegicus, po, 168 h, gavage; for response vs control in vivo at 3 mg/kg: 3 mg/kg × 7 days; for response vs control in vivo at 30 mg/kg: 30 mg/kg × 7 days;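 as to Uterine Wt. %: 100% equals the stimulated control's weight gain over the unstimulated control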
Procedure: By virtue of their ability to inhibit the enzyme aromatase, the compounds of this invention are able to inhibit the synthesis of estrogens in mammals, thereby making the compounds useful in the treatment of estrogen-dependent diseases, such as breast cancer.
Immature female Wistar rats (45-55 grams) were divided into control and test groups of 2-8 animals each. Test compounds were administered for seven days daily by gavage in corn oil. Control animals received corn oil without the test compound. Beginning on the fourth day of the test, all animals treated with the test compound and one half of the control animals were given a subcutaneous injection of 1.0 mg of testosterone propionate in corn oil. The remaining control animals received only an equivalent volume of corn oil. On the seventh day of the test, rats treated with testosterone propionate were injected subcutaneously with 100 μCi of [^3 H]-testosterone in 50 μl of saline-ethanol (3:1).
After two hours, the animals were killed by decapitation. Uteri were isolated, trimmed of extraneous connective tissue, and weighed. […] In the control animals treated with testosterone propionate, estrogens produced by aromatization stimulated the uterus resulting in an increase in weight.
Ovaries from rats treated with [^3 H]-testosterone were excised, cleaned of extraneous tissue, and homogenized in 2.5 ml of a 1.0 mM potassium phosphate buffer containing 3.0 mM MgCl2.6H2 O, 320 mM sucrose, and 0.25% Triton X-100 (polyethylene glycol p-isooctyl phenyl ether, Rohm and Haas) at pH 6.5. The ovarian steroids were extracted with 1.5 ml of 9:1 toluene/ethanol to which had been added 25 to 100 mcg each of unlabelled estradiol, estriol, and estrone, and approximately 1000 dpm of [^14 C]-estradiol. The samples were vortexed, centrifuged at 500×g for 10 minutes, and the organic phase was transferred to a conical vial. Two additional extractions were performed on the residue in the same way. The pooled organic extracts were evaporated for subsequent thin-layer chromatography.
Ovarian proteins were precipitated by the addition of 5.0 ml of ethanol to the remaining aqueous phase. After an overnight incubation at 4° C., the samples were centrifuged at 1500×g for 10 minutes. The supernatant was discarded and the pellet was dissolved in 0.3 N potassium hydroxide. Protein was determined according to the method of Bradford, Analytical Biochemistry, 72, 248 (1976).
The organic residue from each above extraction was redissolved in 9:1 dichloromethane/methanol. The solution of each sample was applied to separate silica gel thin layer chromatography plates which contained a fluorescent indicator. The plates were developed the first dimension with 160:38:1.5:0.5 dichloromethane/ethyl acetate/methanol/acetic acid to within 3 cm of the top of the plate. After air-drying, the plate was developed in the second dimension with 180:19:1 dichloromethane/methanol/ammonium hydroxide. The plate was air-dried and viewed under 254 nm UV light.
The visible spots were marked and the plates were sprayed with primulin (0.001% in 4:1 acetone/water) according to the method of Wright, J. Chromatography, 59, 220 (1971) which allowed for the identification of additional steroids under 365 nm UV light. The spots were scraped from the plate using a glass wool plugged Pasteur pipet attached to a vacuum line. The steroids were eluted directly into scintillation vials by the addition of 0.2 ml of dichloromethane followed by two washes each of 2.0 ml of methanol. The organic solvent was evaporated and 10.0 ml of scintillation fluid (Beckman Ready Solv-NA) was added to the vials. Samples were analyzed by liquid scintillation spectrometry and the corrections were made based on the recoveries of the [^14 C]-steroid.
In Table 2, values for uterine weight are expressed as the respective weights of drug treated (DT), unstimulated corn oil control (UC), and stimulated corn oil control (SC) according to the calculation %=100 (DT-UC)/(SC-UC). […]

[2] = 100 (DT-UC)/(SC-UC), read-out: Uterine Wt. %
[3] = ovaries, percent of testosterone-treated controls, read-out: % steroid concentration, estradiol
[4] = ovaries, percent of testosterone-treated controls, read-out: % steroid concentration, estrone

SMILES: c1ccc(C2c3ccccc3-c3ncncc32)cc1 (centres unmarked) [Example 7, 5-phenyl-5H-indeno[1,2-d]pyrimidine]
EC50 (aromatase): 84 nM

SMILES: Clc1ccc(C2c3ccccc3-c3ncncc32)c(Cl)c1 (centres unmarked) [Example 8, 5-(2,4-dichlorophenyl)-5H-indeno[1,2-d]pyrimidine]
EC50 (aromatase): 63 nM

SMILES: Clc1ccc(Cl)c(C2c3ccccc3-c3ncncc32)c1 (centres unmarked) [Example 10, 5-(2,5-dichlorophenyl)-5H-indeno[1,2-d]pyrimidine]
EC50 (aromatase): 84 nM

SMILES: COc1ccc2c(c1)C(c1ccc(Cl)cc1)c1cncnc1-2 (centres unmarked) [Example 12, 5-(4-chlorophenyl)-7-methoxy-5H-indeno[1,2-d]pyrimidine]
EC50 (aromatase): 128 nM

SMILES: Fc1ccccc1C1c2ccccc2-c2ncncc21 (centres unmarked) [Example 14, 5-(2-fluorophenyl)-5H-indeno[1,2-d]pyrimidine]
EC50 (aromatase): 86 nM

SMILES: Fc1ccc2c(c1)C(c1ccccc1F)c1cncnc1-2 (centres unmarked) [Example 17, 7-fluoro-5-(2-fluorophenyl)-5H-indeno[1,2-d]pyrimidine]
EC50 (aromatase): 750 nM

SMILES: OC1(c2ccc(Cl)cc2Cl)c2ccccc2-c2ncncc21 (centres unmarked) [Example 19]
response vs control in vivo at 3 mg/kg [1, 2]: 69.6%
response vs control in vivo at 3 mg/kg [1, 3]: 78.3%
response vs control in vivo at 3 mg/kg [1, 4]: 116%
response vs control in vivo at 30 mg/kg [1, 2]: 42.8%
response vs control in vivo at 30 mg/kg [1, 3]: 60%
response vs control in vivo at 30 mg/kg [1, 4]: 75.4%
EC50 (aromatase): 255 nM

SMILES: COc1ccc2c(c1)C(O)(c1ccc(Cl)cc1)c1cncnc1-2 (centres unmarked) [Example 20, 5-(4-chlorophenyl)-7-methoxy-5H-indeno[1,2-d]pyrimidin-5-ol]
EC50 (aromatase): 420 nM

SMILES: CC(=O)NC1(c2ccc(Cl)cc2)c2ccc(Cl)cc2-c2ncncc21 (centres unmarked) [Example 23, N-[8-chloro-5-(4-chlorophenyl)-5H-indeno[1,2-d]pyrimidin-5-yl]acetamide]
EC50 (aromatase): 265 nM

SMILES: CC(=O)NC1(c2ccc(F)cc2)c2ccccc2-c2ncncc21 (centres unmarked) [Example 24, N-[5-(4-fluorophenyl)-5H-indeno[1,2-d]pyrimidin-5-yl]acetamide]
response vs control in vivo at 3 mg/kg [1, 2]: 32.3%
response vs control in vivo at 3 mg/kg [1, 3]: 43.2%
response vs control in vivo at 3 mg/kg [1, 4]: 71.9%
response vs control in vivo at 30 mg/kg [1, 2]: 23.2%
response vs control in vivo at 30 mg/kg [1, 3]: 19.2%
response vs control in vivo at 30 mg/kg [1, 4]: 59.9%
EC50 (aromatase): 69 nM

SMILES: CC(=O)NC1(c2ccc(Cl)cc2Cl)c2ccccc2-c2ncncc21 (centres unmarked) [Example 25, N-[5-(2,4-dichlorophenyl)-5H-indeno[1,2-d]pyrimidin-5-yl]acetamide]
EC50 (aromatase): 500 nM

SMILES: ClC1(c2ccccc2)c2ccccc2-c2ncncc21 (centres unmarked) [Example 26, 5-chloro-5-phenyl-5H-indeno[1,2-d]pyrimidine]
EC50 (aromatase): 118 nM

SMILES: Clc1ccc(C2(Cl)c3ccc(Cl)cc3-c3ncncc32)cc1 (centres unmarked) [Example 27, 5,8-dichloro-5-(4-chlorophenyl)-5H-indeno[1,2-d]pyrimidine]
EC50 (aromatase): 72 nM

Compounds with a lower EC50 (aromatase), results first:

EC50 (aromatase): 21 nM
SMILES: Clc1ccc2c(c1)-c1ncncc1C2c1ccccc1 (centres unmarked) [Example 3, 8-chloro-5-phenyl-5H-indeno[1,2-d]pyrimidine]

EC50 (aromatase): 27 nM
SMILES: Fc1ccc(C2c3ccc(C(F)(F)F)cc3-c3ncncc32)cc1 (centres unmarked) [Example 4, 5-(4-fluorophenyl)-8-(trifluoromethyl)-5H-indeno[1,2-d]pyrimidine]
response vs control in vivo at 3 mg/kg [1, 2]: -14.3%
response vs control in vivo at 30 mg/kg [1, 2]: -35.5%

EC50 (aromatase): 50 nM
SMILES: Fc1ccc2c(c1)-c1ncncc1C2c1ccc(C(F)(F)F)cc1 (centres unmarked) [Example 5, 8-fluoro-5-[4-(trifluoromethyl)phenyl]-5H-indeno[1,2-d]pyrimidine]
response vs control in vivo at 3 mg/kg [1, 2]: 47.3%
response vs control in vivo at 30 mg/kg [1, 2]: 22.8%

EC50 (aromatase): < 50 nM
SMILES: Fc1cccc(C2c3ccccc3-c3ncncc32)c1 (centres unmarked) [Example 9, 5-(3-fluorophenyl)-5H-indeno[1,2-d]pyrimidine]

EC50 (aromatase): < 50 nM
SMILES: Clc1ccc(C2c3ccccc3-c3ncncc32)cc1Cl (centres unmarked) [Example 11, 5-(3,4-dichlorophenyl)-5H-indeno[1,2-d]pyrimidine]

EC50 (aromatase): 61 nM
SMILES: COc1ccc2c(c1)C(c1ccc(F)cc1)c1cncnc1-2 (centres unmarked) [Example 13, 5-(4-fluorophenyl)-7-methoxy-5H-indeno[1,2-d]pyrimidine]

EC50 (aromatase): < 50 nM
SMILES: Fc1ccc(C2c3ccccc3-c3ncncc32)cc1 (centres unmarked) [Example 15, 5-(4-fluorophenyl)-5H-indeno[1,2-d]pyrimidine]

EC50 (aromatase): < 50 nM
SMILES: COc1ccc2c(c1)-c1ncncc1C2c1cccc(Cl)c1 (centres unmarked) [Example 16, 5-(3-chlorophenyl)-8-methoxy-5H-indeno[1,2-d]pyrimidine]

EC50 (aromatase): 26 nM
SMILES: OC1(c2ccc(Cl)cc2)c2ccc(Cl)cc2-c2ncncc21 (centres unmarked) [Example 18, 8-chloro-5-(4-chlorophenyl)-5H-indeno[1,2-d]pyrimidin-5-ol]
response vs control in vivo at 3 mg/kg [1, 2]: 30.4%
response vs control in vivo at 3 mg/kg [1, 3]: 16.8%
response vs control in vivo at 3 mg/kg [1, 4]: 89%
response vs control in vivo at 30 mg/kg [1, 2]: -7.7%
response vs control in vivo at 30 mg/kg [1, 3]: 7.5%
response vs control in vivo at 30 mg/kg [1, 4]: 77%

EC50 (aromatase): < 50 nM
SMILES: OC1(c2ccc(F)cc2)c2ccccc2-c2ncncc21 (centres unmarked) [Example 21, 5-(4-fluorophenyl)-5H-indeno[1,2-d]pyrimidin-5-ol]
response vs control in vivo at 3 mg/kg [1, 2]: 46.4%
response vs control in vivo at 3 mg/kg [1, 3]: 14.5%
response vs control in vivo at 3 mg/kg [1, 4]: 83.8%
response vs control in vivo at 30 mg/kg [1, 2]: 17.9%
response vs control in vivo at 30 mg/kg [1, 3]: 8.8%
response vs control in vivo at 30 mg/kg [1, 4]: 71.3%

EC50 (aromatase): 50 nM
SMILES: OC1(c2ccccc2Cl)c2ccc(Cl)cc2-c2ncncc21 (centres unmarked) [Example 22, 8-chloro-5-(2-chlorophenyl)-5H-indeno[1,2-d]pyrimidin-5-ol]
response vs control in vivo at 3 mg/kg [1, 2]: 70%
response vs control in vivo at 3 mg/kg [1, 3]: 79.4%
response vs control in vivo at 3 mg/kg [1, 4]: 73.4%
response vs control in vivo at 30 mg/kg [1, 2]: 57.4%
response vs control in vivo at 30 mg/kg [1, 3]: 40.8%
response vs control in vivo at 30 mg/kg [1, 4]: 90.1%

EC50 (aromatase): 35 nM
SMILES: FC1(c2ccc(Cl)cc2)c2ccc(Cl)cc2-c2ncncc21 (centres unmarked) [Example 28, 8-chloro-5-(4-chlorophenyl)-5-fluoro-5H-indeno[1,2-d]pyrimidine]
